Source: patent publication US8153767B2 (priority 2006, dated 2012)
≈ marks a conversion by molar mass, not a printed value.

What was measured:
[1] = tested on: monoclonal antibody useful for detecting all aflatoxins (JP-A 4-360695); details: cited from earlier work
[2] = tested on: rabbit antiserum (aflatoxin B1 hapten immunogen)
[3] = tested on: mouse antiserum (aflatoxin B1 hapten immunogen)
[4] = tested on: antibody AF-1 (JP-A 63-219394); details: cited from earlier work

| Structure (SMILES) | crossreactivities in terms of IC50 [1] [ng/mL] | IC50 [2] [ng/mL] | IC50 [3] [ng/mL] | ability to bind to G1 relative to its ability to bind to B1 or B2 [4] |
| --- | --- | --- | --- | --- |
| COc1cc2c(c3oc(=O)c4c(c13)CCC4=O)C1C=COC1O2 (stereo not drawn) [Aflatoxin B1] | 0.44 | 0.07 (≈ 0.224 nM) | 0.07 (≈ 0.224 nM) |  |
| COc1cc2c(c3oc(=O)c4c(c13)CCC4=O)C1CCOC1O2 (stereo not drawn) [Aflatoxin B2] | 2.1 | 1.7 (≈ 5.41 nM) | 1.5 (≈ 4.77 nM) |  |
| COc1cc2c(c3oc(=O)c4c(c13)CCOC4=O)C1C=COC1O2 (stereo not drawn) [Aflatoxin G1] | 2.4 | 0.63 (≈ 1.92 nM) | 0.6 (≈ 1.83 nM) | 1/10 |
| COc1cc2c(c3oc(=O)c4c(c13)CCOC4=O)C1CCOC1O2 (stereo not drawn) [Aflatoxin G2] | 5.2 | 18 (≈ 54.5 nM) | 16 (≈ 48.4 nM) |  |
| COc1cc2c(c3oc(=O)c4c(c13)CCC4=O)C1(O)C=COC1O2 (stereo not drawn) [Aflatoxin M1] |  | 14 (≈ 42.6 nM) | 11 (≈ 33.5 nM) |  |
